Source: patent publication US6472227B1, “Barbiturate assay, tracers, immunogens, antibodies and kit” (Abbott Laboratories, priority 1986, dated 2002)

Tests used:
[1] = tested on: antibodies raised against an immunogen having the structure shown in FIG. 29; experiment: Fluorescence polarization immunoassay cross-reactivity, tracer of FIG. 31; format: binding, sheep; details: Conc. Added 1200 ng/mL; tracer FIG. 31
Experimental: (§1) The antibodies of the present invention are prepared by eliciting a response in sheep to the immunogens described supra. The immunogen is administered to animals or to in vitro cultures of immunocompetent cells by a series of innoculations, in a manner well known to those skilled in the art.

[2] = tested on: antibodies raised against an immunogen having the structure shown in FIG. 28; experiment: Fluorescence polarization immunoassay cross-reactivity in drug-free normal human urine, tracer of FIG. 5; format: binding, sheep; details: for amount of the test compound found in the resulting human urine: 200 ng/mL added to drug-free urine, secobarbital standard
Experimental: as §1
(§2) The tracer formulation presently preferred is 150 nanomolar tracer in: 0.1 molar phosphate buffer at pH 6.2; 5% sodium 5-sulfosalicylate; 0.1% sodium azide; and 0.01% bovine gamma-globulin. The antiserum formulation comprises sheep serum diluted with: 0.1 molar tris buffer at pH 7.5; 0.1% sodium azide; 0.1% bovine gamma-globulin; and 2% ethylene glycol (volume/volume). The dilution buffer comprises: 0.1 molar sodium phosphate at pH 7.5; 0.1% sodium azide; and 0.01% bovine gamma-globulin. The pretreatment solution comprises: 0.01% bovine gamma-globulin; 0.1 molar tris buffer at pH 7.5; 0.1% sodium azide; and 10 mg/mL riboflavin binding protein.
(§3) A minimum of fifty microliters of urine is required. The calibrators, controls, or unknown samples are pipetted directly into the sample well of the TDx® or ADx® sample cartridge. […] The assay procedure from this point is fully automated.
(§4) If a manual assay is being performed, then the sample is mixed with the pretreatment solution in dilution buffer and a background reading is taken. The tracer and antibody are then mixed into the test solution. After incubation, a fluorescence polarization reading is taken.
(§5) The net fluorescence polarization value of each calibrator, control or sample is determined and is printed on the output tape of an instrument such as the Abbott TDx® Analyzer. […] The concentration of each control or sample is read off the stored calibration curve and printed on the output tape.
Cross-reactivity was tested by the method of the present invention for the commonly-used barbiturates. […]
The five columns indicate the following information:
In other words, when 200 ng of secobarbital were added to drug-free normal human urine, approximately 200 ng of secobarbital were detected in the resulting urine sample. Thus, the closer the factor is to 1.0, the more accurate the assay is with respect to the particular test compound analyzed.
The percent cross-reactivity value presented in column five was obtained by the following mathematical formula: [formula]
(§6) The five columns in Tables 4(a) and 4(b) indicate the same information as is described above for Table 3(a).

[3] = tested on: antibodies raised against an immunogen having the structure shown in FIG. 29; experiment: Fluorescence polarization immunoassay cross-reactivity in drug-free normal human urine, tracer of FIG. 30; format: binding, sheep; details: for amount of the test compound found in the resulting human urine: 200 ng/mL added to drug-free urine, secobarbital standard; for % CR / Conc. Found: Conc. Added 1200 ng/mL, tracer FIG. 30
Experimental: as §1, §2, §3, §4, §5
Cross-reactivity was tested by the method of the present invention for the commonly-used barbiturates. In each case, compounds were assayed on the Abbott Laboratories+ TDx® Clinical Analyzer or the ADx® Drugs of Abuse System after adding a known quantity (200 ng/mL) of the barbiturate test compound to drug-free normal human urine.
as §6

[4] = Long-term tracer stability: polarization and net intensity after storage (Tables 2(a), 2(b)); format: physicochemical
From the text: The data presented in Tables 2(a) and 2(b) below indicate that a tracer which has an ethylene (—CH═CH—) linkage group between the fluorescein and the ligand component of the tracer remains stable at varied temperatures for a period of at least one and one half years. While a tracer having the chemical structure shown in FIG. 5 was employed to generate the data presented in Table 2(a), a tracer having the chemical structure shown in FIG. 30 was employed to generate the data presented in Table 2(b).

[5] = 200 ng/mL added, listed as secobarbital

For `C=CCC1(CC(C)C)C(=O)NC(=O)NC1=O` [Butalbital], the “% CR” value [1] was over 167%, the “factor which overestimates or underestimates the compound assayed for” value ([2]; 200 ng/mL added) was 1.00 and the percent cross reactivity ([2]; 200 ng/mL added) was 100%. For the same compound, the “amount of the test compound found in the resulting human urine” value (from here on “amount … in the resulting human urine”) [2] was 201 ng/mL, the “factor which overestimates or underestimates the compound assayed for” value ([3]; 200 ng/mL added) was 1.13 and the percent cross reactivity ([3]; 200 ng/mL added) was 113%. The “amount … in the resulting human urine” value [3] was 227 ng/mL, the “% CR” value [3] was 167% and the “Conc. Found” value [3] was 2000 ng/mL.

For `CCC1(c2ccc(N)cc2)CCC(=O)NC1=O` (stereo not drawn) [Aminoglutethimide], the “amount of the test compound found” value ([3]; 1 μg/mL added) was “ND (None detected: Concentration less than the sensitivity of the assay (60 ng/mL))”, the “amount of the test compound found” value ([3]; 10 μg/mL added) was 117 ng/mL and the factor ([3]; 10 μg/mL added) was 0.00117. The percent cross reactivity ([3]; 10 μg/mL added) was 1.17%, the “amount of the test compound found” value ([3]; 100 μg/mL added) was 412 ng/mL and the factor ([3]; 100 μg/mL added) was 0.00041. The percent cross reactivity ([3]; 100 μg/mL added) was 0.41%.

With `CCCC(C)C1(C/C=C/C(=O)NCc2c(O)ccc3c2Oc2cc(O)ccc2C32OC(=O)c3ccccc32)C(=O)NC(=O)NC1=O` (stereo not drawn) [FIG. 5] the “Average Net Intensity” value ([4]; 1 Year, 2-8 °C) was 3161-4615, the Polarization ([4]; 1 Year, 2-8 °C) was 204.85 and the “Average Net Intensity” value ([4]; 18 Months, 2-8 °C) was 3304-4798. The Polarization ([4]; 18 Months, 2-8 °C) was 199.29, the “Average Net Intensity” value ([4]; Day 0, 2-8 °C) was 3400-5000 and the Polarization ([4]; Day 0, 2-8 °C) was 209.17. For the same compound, the “Average Net Intensity” value ([4]; Day 1, 2-8 °C) was 3290-4733, the Polarization ([4]; Day 1, 2-8 °C) was 206.61 and the “Average Net Intensity” value ([4]; Day 2, 2-8 °C) was 3200-4670. For the same compound, the Polarization ([4]; Day 2, 2-8 °C) was 207.07, the “Average Net Intensity” value ([4]; Day 3, 2-8 °C) was 3367-4895 and the Polarization ([4]; Day 3, 2-8 °C) was 208.05. For the same compound, the “Average Net Intensity” value ([4]; Day 3, 37 °C) was 3400-4910, the Polarization ([4]; Day 3, 37 °C) was 207.60 and the “Average Net Intensity” value ([4]; Day 3, 45 °C) was 3400-4950. For the same compound, the Polarization ([4]; Day 3, 45 °C) was 205.51, the “Average Net Intensity” value ([4]; Day 3, −20 °C) was 3395-4965 and the Polarization ([4]; Day 3, −20 °C) was 207.38. The “Average Net Intensity” value ([4]; Month 2, 2-8 °C) was 3282-4777, the Polarization ([4]; Month 2, 2-8 °C) was 207.21 and the “Average Net Intensity” value ([4]; Month 4, 2-8 °C) was 3210-4775. The Polarization ([4]; Month 4, 2-8 °C) was 205.59, the “Average Net Intensity” value ([4]; Month 8, 2-8 °C) was 3150-4677 and the Polarization ([4]; Month 8, 2-8 °C) was 206.85. The “Average Net Intensity” value ([4]; Week 1, 2-8 °C) was 3400-4900, the Polarization ([4]; Week 1, 2-8 °C) was 208.25 and the “Average Net Intensity” value ([4]; Week 1, 37 °C) was 3500-5000. For the same compound, the Polarization ([4]; Week 1, 37 °C) was 202.78, the “Average Net Intensity” value ([4]; Week 1, 45 °C) was 3550-5200 and the Polarization ([4]; Week 1, 45 °C) was 200.11. The “Average Net Intensity” value ([4]; Week 1, −20 °C) was 3300-4800, the Polarization ([4]; Week 1, −20 °C) was 208.46 and the “Average Net Intensity” value ([4]; Week 2, 2-8 °C) was 3100-4590. The Polarization ([4]; Week 2, 2-8 °C) was 210.41, the “Average Net Intensity” value ([4]; Week 2, −20 °C) was 3180-4635 and the Polarization ([4]; Week 2, −20 °C) was 208.85. For the same compound, the “Average Net Intensity” value ([4]; Week 4, 2-8 °C) was 3395-4988 and the Polarization ([4]; Week 4, 2-8 °C) was 210.35.

In the case of `C=CCC1(C(C)CCC)C(=O)NC(=O)NC1=O` (stereo not drawn) [Secobarbital], the “factor which overestimates or underestimates the compound assayed for” value ([2]; 200 ng/mL added) is reported as 1.00, the percent cross reactivity ([2]; 200 ng/mL added) is reported as 100% and the “amount … in the resulting human urine” value [2] is reported as 200 ng/mL. The “factor which overestimates or underestimates the compound assayed for” value [2, 5] was 1.0, the percent cross reactivity [2, 5] was 100% and the “factor which overestimates or underestimates the compound assayed for” value ([3]; 200 ng/mL added) was 1.00. The percent cross reactivity ([3]; 200 ng/mL added) was 100% and the “amount … in the resulting human urine” value [3] was 200 ng/mL.

With `CC(C(=O)O)c1ccc(CC(C)(C)O)cc1` (stereo not drawn) [OH-Ibuprofen] the “amount of the test compound found” value ([2]; 1 μg/mL added) was “ND (None detected: Concentration less than the sensitivity of the assay (60 ng/mL))”, the “amount of the test compound found” value ([2]; 10 μg/mL added) was “ND (None detected: Concentration less than the sensitivity of the assay (60 ng/mL))” and the “amount of the test compound found” value ([2]; 100 μg/mL added) was “ND (None detected: Concentration less than the sensitivity of the assay (60 ng/mL))”. For the same compound, the “amount of the test compound found” value ([2]; 1000 μg/mL added) was 60 ng/mL, the factor ([2]; 1000 μg/mL added) was 0.00006 and the percent cross reactivity ([2]; 1000 μg/mL added) was 0.006%.

With `CCCC(C)C1(CC)C(=O)NC(=O)NC1=O` (stereo not drawn) [Pentobarbital] the “% CR” value [1] was 64%, the “Conc. Found” value [1] was 770 ng/mL and the “factor which overestimates or underestimates the compound assayed for” value ([2]; 200 ng/mL added) was 1.05. The percent cross reactivity ([2]; 200 ng/mL added) was 105%, the “amount … in the resulting human urine” value [2] was 210 ng/mL and the “factor which overestimates or underestimates the compound assayed for” value ([3]; 200 ng/mL added) was 0.65. For the same compound, the percent cross reactivity ([3]; 200 ng/mL added) was 65%, the “amount … in the resulting human urine” value [3] was 129 ng/mL and the “% CR” value [3] was 62%. For the same compound, the “Conc. Found” value [3] was 740 ng/mL.

With `C=CCC1(C(C)C)C(=O)NC(=O)NC1=O` [Aprobarbital] the “% CR” value [1] was 139%, the “Conc. Found” value [1] was 1670 ng/mL and the “factor which overestimates or underestimates the compound assayed for” value ([3]; 200 ng/mL added) was 0.62. For the same compound, the percent cross reactivity ([3]; 200 ng/mL added) was 62%, the “amount … in the resulting human urine” value [3] was 123 ng/mL and the “% CR” value [3] was 77%. The “Conc. Found” value [3] was 920 ng/mL.

In the case of `CCC(C)C1(CC)C(=O)NC(=O)NC1=O` (stereo not drawn) [Butabarbital], the “% CR” value [1] is reported as over 167%, the “factor which overestimates or underestimates the compound assayed for” value ([3]; 200 ng/mL added) is reported as 2.24 and the percent cross reactivity ([3]; 200 ng/mL added) is reported as 224%. For the same compound, the “amount … in the resulting human urine” value [3] was 489 ng/mL and the “% CR” value [3] was over 167%.
